The text below walks through data of paper PMC9830638, “High-Contrast Detection of Somatostatin Receptor Subtype-2 for Fluorescence-Guided Surgery” (Molecular Pharmaceutics, 2022).

This assay relates to orthotopically implanted BON–SSTR2 tumors. As to the kind of experiment: Simulated clinical workflow, PET/CT imaging in orthotopic BON–SSTR2 tumor model. Type of assay: in vivo, mice. To be noted: orthotopic BON–SSTR2, 7.4 MBq (0.5 nmol), 1 h after injection, n = 5. Here is the method:
Mice bearing orthotopically implanted BON–SSTR2 tumors (n = 5) were injected with 7.4 MBq (200 μCi; 0.5 nmol) of ^68Ga-DOTA-TOC and underwent PET/computed tomography (CT) imaging (Albira small animal PET/CT scanner, Bruker) 1 h after injection. […] After euthanasia, tumors were harvested under white light, and the wound bed was re-imaged with NIRF. After a more thorough visual inspection of the wound bed under white light, suspicious lesions were identified and harvested with the intact organ for ex vivo imaging along with other tissues of interest. Tumors, suspicious lesions, and relevant non-tumor tissues were processed for immunohistopathological and mesoscopic imaging.
For CFT two-dimensional (2D) and three-dimensional (3D) reconstruction, 2D images were obtained from individual slices, and an image stack was generated to produce 3D data sets. For PET/CT imaging, region-of-interest analysis was done with Integrated PMOD software (PMOD technologies) to standardize uptake values and determine TBRs.

Consider “1,4,7,10-tetraazacyclododecane-1,4,7,10-tetraacetic acid-Tyr^3-octreotide [68Ga-DOTA-TOC]”, for which the “mice with abnormal uptake in the abdomen (PET/CT)” value is 4 out of 5.
